The record followed here is PMC7323874, “Vancomycin Resistance Is Overcome by Conjugation of Polycationic Peptides” (Angewandte Chemie (International Ed. in English), 2020).

Common to all, as to assay type: cell-based
Series [1] relates to Staphylococcus aureus USA300. Briefly: Broth microdilution on vancomycin-sensitive strain. How it is done:
(§1) Antimicrobial testing – Microdilution
(§2) Antimicrobial testing was performed according to CLSI and EUCAST guidelines in microdilution.8-10 Therefore, all tested substances as well as controls were dissolved in water in different concentrations and serially diluted in MHB II (cation adjusted) on the 96-well plate. A logarithmic growing, overnight culture of the respective bacterial strain was used and adjusted to a McFarland corresponding to 1 × 10^8 cfu/ml. Afterwards the bacterial suspension was diluted to 1 ×10^6 cfu/ml and loaded on the 96-well polypropylene plates, resulting in a final bacterial concentration of 5 × 10^5 cfu/ml. After an incubation at 35 ± 1 °C for 18-20 hours (re-controlled after 24 hours) the MIC was determined as the lowest concentration without visible growth as described previously.11 For direct comparison of the tested substances, all results were calculated in mg/ml and mol/ml afterwards. […]
(§3) Resistance development in S. aureus was determined by passaging bacteria in increasing amounts of vancomycin, FU002 or, as control, fusidic acid. In principle, tubes with twofold dilutions of the compounds in 1 ml Muller Hinton broth were inoculated 1:100 with bacterial suspension. […]
(§4) For the validation of possible side effects provoked by the conjugates, the cytotoxic effect of the lead candidate FU002 on human cells was assessed in a colorimetric viability assay. […]

Another series relates to E. coli ATCC 25922. The conditions noted are these: median of at least triplicates on two different plates. As to the method: as §1, §2, §3, §4
For series [2], the system named is human cell lines (blood, liver, kidney). The experiment in a line: Cytotoxicity, XTT viability assay. To be noted: 64 µg/ml, 24 h incubation, three human cell lines (blood, liver, kidney).
Another series deals with P. aeruginosa ATCC 27853. To be noted: median of at least triplicates on two different plates. As to the method: as §1, §2
(§5) As further control substance, the glycopeptide antibiotic teicoplanin was evaluated. […] Resistance development in S. aureus was determined by passaging bacteria in increasing amounts of vancomycin, FU002 or, as control, fusidic acid. […]
as §4

The test system of series [3] is vancomycin-resistant strains (vanA, vanB and vanC). To be noted: all values, vanB and vanC resistance types. As to the method: as §1, §2, §5, §4

Molecules are shown by their SMILES.

With `CC(C)C[C@H](C(=O)N[C@H]1C(=O)N[C@@H](CC(N)=O)C(=O)N[C@H]2C(=O)N[C@H]3C(=O)N[C@H](C(=O)N[C@H](C(=O)O)c4cc(O)cc(O)c4-c4cc3ccc4O)[C@H](O)c3ccc(c(Cl)c3)Oc3cc2cc(c3O[C@@H]2O[C@H](CO)[C@@H](O)[C@H](O)[C@H]2O[C@H]2C[C@](C)(N)[C@H](O)[C@H](C)O2)Oc2ccc(cc2Cl)[C@H]1O)N(C)C(=O)C1CCC(CN2C(=O)CC(SC[C@H](NC(=O)[C@H](CCCNC(=N)N)NC(=O)[C@H](CCCNC(=N)N)NC(=O)[C@H](CCCNC(=N)N)NC(=O)[C@H](CCCNC(=N)N)NC(=O)[C@H](CCCNC(=N)N)NC(=O)[C@@H](N)CCCNC(=N)N)C(N)=O)C2=O)CC1` (some centres unmarked) [FU002], the “activity compared with vancomycin (MIC)” value in series [1] is listed as “at least as active as vancomycin”. The MIC with E. coli ATCC 25922 and against P. aeruginosa ATCC 27853 was not below 640 µg/mL each time. For the same compound, the cytotoxicity entry in series [2] is listed as “no relevant cytotoxicity”. In addition, the “MIC (minimum inhibitory concentration)” value in series [3] is on record as “below 4 mg L^−1”.
